# Laboratory results published in patent US4978761A, “5-hydroxy-2-substituted-2,4,6,7-tetramethyl-2,3-dihydrobenzofurans” (Takeda Chemical Industries, Ltd., priority 1988, dated 1990).
# Columns and labels:
# [1] = target: T1, 12-Lipoxygenase (Rattus norvegicus, UniProt F1LQ70); experiment: 12-Lipoxygenase inhibitory action: 12-HETE production in Wistar rat platelets (HPLC); type: cell-based; conditions: read-out: 12-Lipoxygenase Inhibitory Action, % Inhibition (IE); for inhibition at 100 µM: 10^-4 M; for inhibition at 10 µM: 10^-5 M; for inhibition at 1 µM: 10^-6 M; for inhibition at 0.1 µM: 10^-7 M
# T1 construct: from tissue; host or cells: Wistar rat platelets (PRP mixed with PPP, from citrated aortic blood)
# T1 sequence (F1LQ70 1-663): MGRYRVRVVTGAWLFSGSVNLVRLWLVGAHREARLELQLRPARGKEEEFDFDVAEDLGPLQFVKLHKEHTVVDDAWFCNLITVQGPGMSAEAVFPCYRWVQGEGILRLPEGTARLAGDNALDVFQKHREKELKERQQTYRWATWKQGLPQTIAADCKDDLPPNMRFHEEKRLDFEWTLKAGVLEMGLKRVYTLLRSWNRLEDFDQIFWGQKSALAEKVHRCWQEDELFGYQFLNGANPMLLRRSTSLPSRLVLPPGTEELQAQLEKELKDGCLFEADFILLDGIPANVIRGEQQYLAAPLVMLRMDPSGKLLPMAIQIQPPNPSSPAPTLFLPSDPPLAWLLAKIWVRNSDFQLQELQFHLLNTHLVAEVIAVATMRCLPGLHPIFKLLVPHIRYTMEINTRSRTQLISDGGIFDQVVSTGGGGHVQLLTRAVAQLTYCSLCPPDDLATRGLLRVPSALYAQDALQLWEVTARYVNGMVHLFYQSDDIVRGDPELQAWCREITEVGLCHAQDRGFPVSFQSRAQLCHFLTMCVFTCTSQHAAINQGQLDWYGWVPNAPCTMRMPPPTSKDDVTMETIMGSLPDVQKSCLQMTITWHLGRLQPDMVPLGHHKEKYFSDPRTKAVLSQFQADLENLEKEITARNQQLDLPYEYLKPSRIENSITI
# Method: Through the descending aorta of a Wistar rat, 10 ml of blood was collected, under anesthesia, together with citric acid of a volume corresponding to 10%. PRP and PPP were respectively prepared, then they were mixed to make the number of platelets to be 10^9 /ml. To 2.5 μl each of the test solutions prepared in advance (final concentrations of the test compounds : 100 μm, 10 μm, 1 μm and 0.1 μm) was added 0.225 ml of the platelet solution. The respective solutions were kept at 37° C. for 5 minutes, to which was added 25 μl each of arachidonic acid solution (50 μg/ml) , then the respective mixtures were shaken immediately. The reaction was allowed to proceed at 37° C. for 15 minutes, and there was added ethanol (1 ml) to stop the reaction. The reaction mixture was subjected to a centrifuge (2000 rpm) for 5 minutes. One ml of the supernatant was taken, which was mixed with 1 ml of water. 100 μl of this mixture solution was subjected to high performance liquid chromatography to quantitatively determine 12-HETE. The detection was conducted at 240 nm. The calculation of the inhibition rate was conducted in a manner as in the case of 5-HETE.
# [2] = target: T2, 5-Lipoxygenase (Rattus norvegicus, UniProt P12527); experiment: 5-Lipoxygenase inhibiting action: 5-HETE production in rat basophilic leukemia (RBL-1) cells (HPLC); type: cell-based; conditions: read-out: Effect of Inhibiting 5-Lipoxygenase, % Inhibition (IE); for inhibition at 10 µM: 10^-5 M; for inhibition at 1 µM: 10^-6 M; for inhibition at 0.1 µM: 10^-7 M; for inhibition at 0.01 µM: 10^-8 M
# T2 construct: endogenous in cells; host or cells: RBL-1 (rat basophilic leukemia) cells
# T2 sequence (P12527 1-673): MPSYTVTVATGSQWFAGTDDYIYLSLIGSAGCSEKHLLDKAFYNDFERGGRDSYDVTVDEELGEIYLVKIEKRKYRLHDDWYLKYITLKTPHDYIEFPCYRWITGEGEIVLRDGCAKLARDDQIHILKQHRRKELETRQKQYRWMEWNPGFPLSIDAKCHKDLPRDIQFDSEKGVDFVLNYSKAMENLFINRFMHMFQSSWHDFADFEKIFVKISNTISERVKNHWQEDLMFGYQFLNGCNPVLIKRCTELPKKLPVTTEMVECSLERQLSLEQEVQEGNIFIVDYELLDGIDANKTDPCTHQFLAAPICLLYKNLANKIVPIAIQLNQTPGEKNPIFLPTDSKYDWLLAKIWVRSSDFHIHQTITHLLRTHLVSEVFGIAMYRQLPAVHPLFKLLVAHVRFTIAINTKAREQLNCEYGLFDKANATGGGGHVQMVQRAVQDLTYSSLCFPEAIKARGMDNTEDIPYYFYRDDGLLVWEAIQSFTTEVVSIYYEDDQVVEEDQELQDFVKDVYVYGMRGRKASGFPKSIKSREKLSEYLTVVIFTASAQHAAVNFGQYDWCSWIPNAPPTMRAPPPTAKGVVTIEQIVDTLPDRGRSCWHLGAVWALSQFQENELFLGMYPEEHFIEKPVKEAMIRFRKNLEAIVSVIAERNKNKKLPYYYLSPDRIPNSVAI
# Method: In 0.5 ml of MCM (mast cell medium) was suspended 10^7 of rat basophilic leukemia (RBL-1) cells. To this suspension was added the test solution previously prepared [consisting of 0.5 ml of MCM, 50 μg of arachidonic acid, 10 μg of calcium ionophore A-23187 and the test compound (final concentrations 10 μm, 1 μm, 0.1 μm and 0.01 μm)], and the reaction was allowed to proceed at 37° C. for 20 minutes. To the reaction mixture was added 4 ml of ethanol, which was shaken sufficiently, followed by leaving the resultant mixture standing for 10 minutes at room temperatures. The resultant mixture was subjected to a centrifuge (2000 rpm) for 10 minutes, then the supernatant was separated. Thus-separated supernatant was concentrated to dryness under reduced pressure. To the concentrate was added 0.5 ml of a 60% aqueous methanol. A 100μl Portion of this solution was taken and subjected to high performance liquid chromatography to perform quantitative determination of 5-HETE (5-hydroxyeicosatetraenoic acid). UV absorption of 5-HETE at 237 nm was measured with a UV absorption monitor. The inhibitory effect (IE) of 5-HETE is expressed by (1-b/a)×100. In this formula, a means the height of the peak or the area of the peak in the case of presence of no compound (I), while b means the height of the peak or the area of the peak in the case of presence of the compound (I).
SMILES,inhibition at 100 µM [1] [%],inhibition at 10 µM [1] [%],inhibition at 1 µM [1] [%],inhibition at 0.1 µM [1] [%],inhibition at 10 µM [2] [%],inhibition at 1 µM [2] [%],inhibition at 0.1 µM [2] [%],inhibition at 0.01 µM [2] [%]
Cc1c(C)c2c(c(C)c1O)CC(C)(/C=C/Cc1ccccc1)O2 (stereo not drawn) [Compound 17],100,99,98,22,–,–,–,–
Cc1c(C)c2c(c(C)c1O)CC(C)(CCc1ccccc1)O2 (stereo not drawn) [Compound 12],95,82,11,–,100,100,90,46
Cc1c(C)c2c(c(C)c1O)CC(C)(/C=C\c1ccc(F)cc1)O2 (stereo not drawn) [Compound 30],100,100,98,21,–,–,–,–
COc1ccc(/C=C\C2(C)Cc3c(C)c(O)c(C)c(C)c3O2)cc1 (stereo not drawn) [Compound 24],100,99,98,13,–,–,–,–
CCCCCCCCCCCCCC1(C)Cc2c(C)c(O)c(C)c(C)c2O1 (stereo not drawn) [Compound 41],99,74,20,9,–,–,–,–
Cc1c(C)c2c(c(C)c1O)CC(C)(CCCCc1ccccc1)O2 (stereo not drawn) [Compound 23],100,100,92,19,–,–,–,–
Cc1c(C)c2c(c(C)c1O)CC(C)(/C=C/c1ccccc1)O2 (stereo not drawn) [Compound 18],100,100,89,18,–,–,–,–
Cc1ccc(CCC2(C)Cc3c(C)c(O)c(C)c(C)c3O2)cc1 (stereo not drawn) [Compound 35],99,99,49,8,–,–,–,–
CCCCCCC/C=C\C1(C)Cc2c(C)c(O)c(C)c(C)c2O1 (stereo not drawn) [Compound 38],99,99,90,3,–,–,–,–
Cc1c(C)c2c(c(C)c1O)CC(C)(CBr)O2 (stereo not drawn) [Compound 6],98,88,16,2,100,100,52,4
COc1cccc(CCC2(C)Cc3c(C)c(O)c(C)c(C)c3O2)c1 (stereo not drawn) [Compound 29],100,99,58,7,–,–,–,–
"Cc1c(C)c2c(c(C)c1O)CC(C)(CC#N)O2 (stereo not drawn) [Compound 5, 5-hydroxy-2-cyanomethyl-2,4,6,7-tetramethyl-2,3-dihydrobenzofuran]",97,78,14,–,100,100,57,0
CCC/C=C\C1(C)Cc2c(C)c(O)c(C)c(C)c2O1 (stereo not drawn) [Compound 36],100,100,100,97,–,–,–,–
Cc1c(C)c2c(c(C)c1O)CC(C)(C=Cc1ccccc1)O2 (stereo not drawn) [Compound 10],96,92,52,45,100,99,98,12
COc1cccc(/C=C\C2(C)Cc3c(C)c(O)c(C)c(C)c3O2)c1 (stereo not drawn) [Compound 27],100,100,99,19,–,–,–,–
CCCCCCCCCC1(C)Cc2c(C)c(O)c(C)c(C)c2O1 (stereo not drawn) [Compound 39],100,100,32,–,–,–,–,–
COc1ccc(CCC2(C)Cc3c(C)c(O)c(C)c(C)c3O2)cc1 (stereo not drawn) [Compound 26],100,99,28,–,–,–,–,–
Cc1ccc(/C=C\C2(C)Cc3c(C)c(O)c(C)c(C)c3O2)cc1 (stereo not drawn) [Compound 33],100,100,28,2,–,–,–,–
Cc1c(C)c2c(c(C)c1O)CC(C)(CCCc1ccccc1)O2 (stereo not drawn) [Compound 20],100,99,97,9,–,–,–,–
Cc1c(C)c2c(c(C)c1O)CC(C)(/C=C\Cc1ccccc1)O2 (stereo not drawn) [Compound 15],100,100,99,25,–,–,–,–
Cc1c(C)c2c(c(C)c1O)CC(C)(CCc1ccc(F)cc1)O2 (stereo not drawn) [Compound 32],99,99,45,2,–,–,–,–
CCCCCC1(C)Cc2c(C)c(O)c(C)c(C)c2O1 (stereo not drawn) [Compound 37],100,100,31,2,–,–,–,–
CCCCCCCCCCC/C=C\C1(C)Cc2c(C)c(O)c(C)c(C)c2O1 (stereo not drawn) [Compound 40],99,96,48,6,–,–,–,–
Cc1c(C)c2c(c(C)c1O)CC(C)(/C=C\CCc1ccccc1)O2 (stereo not drawn) [Compound 21],100,100,98,21,–,–,–,–
